From patent US11331368B2, “Angiotensin receptor agonists and uses thereof” (Monash University, priority 2017, dated 2022)
Square brackets hold non-standard residues; d marks the D form. Primed or numbered codes have the meaning given here. Ends that are not written are not given here. βVal″ = beta-form valine

How the values were obtained:
[1] = target: T1, human AT1R (Homo sapiens, UniProt P30556); assay: Competition radioligand binding (125I-Sar1-Ile8-AngII) in AT1R-transfected HEK-293 cells
T1 construct: expressed in transfected cells
T1 sequence (P30556 1-359): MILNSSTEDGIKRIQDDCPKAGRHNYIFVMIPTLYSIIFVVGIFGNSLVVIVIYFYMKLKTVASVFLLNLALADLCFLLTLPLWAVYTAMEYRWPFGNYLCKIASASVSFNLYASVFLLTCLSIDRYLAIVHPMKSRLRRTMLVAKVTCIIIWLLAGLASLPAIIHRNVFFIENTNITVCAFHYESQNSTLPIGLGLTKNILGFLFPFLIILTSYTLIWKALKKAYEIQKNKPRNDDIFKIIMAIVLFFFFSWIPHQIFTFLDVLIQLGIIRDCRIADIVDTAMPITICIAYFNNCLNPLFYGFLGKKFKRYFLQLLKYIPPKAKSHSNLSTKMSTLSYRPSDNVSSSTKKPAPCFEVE

[2] = target: T2, human AT2R (Homo sapiens, UniProt P50052); assay: Competition radioligand binding (125I-Sar1-Ile8-AngII) in AT2R-transfected HEK-293 cells; settings: for Fold AT2R selectivity: AT2R over AT1R, Table 3; for binding at AT2R (displacement of 125I-Sar1-Ile8-AngII), in words: transfected HEK-293 cells
T2 construct: expressed in transfected cells
T2 sequence (P50052 1-363): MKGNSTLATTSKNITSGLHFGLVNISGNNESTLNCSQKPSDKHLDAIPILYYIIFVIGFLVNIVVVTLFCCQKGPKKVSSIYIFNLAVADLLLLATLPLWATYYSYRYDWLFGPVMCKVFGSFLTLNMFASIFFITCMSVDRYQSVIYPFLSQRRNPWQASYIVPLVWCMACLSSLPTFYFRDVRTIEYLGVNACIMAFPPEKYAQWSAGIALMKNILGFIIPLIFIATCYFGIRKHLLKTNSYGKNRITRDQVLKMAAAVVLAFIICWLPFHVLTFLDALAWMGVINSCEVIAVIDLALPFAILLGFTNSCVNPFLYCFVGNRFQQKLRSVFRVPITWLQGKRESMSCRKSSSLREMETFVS
Description: This will lead to the generation of IC50 values that determine the relative ability of test compounds to interact with both Angiotensin receptors.
Cells were grown to approximately 80% confluence before being re-plated into 48 well plates at 1×10^5 cells/well and grown for 48 hours at 37° C. for a whole cell competition binding assay. [125I]-Sar1Ile8Ang II at 50,000 cpm, incubated for 45 minutes at 37° C., in the absence or presence of unlabeled ligands, prepared in binding buffer (DMEM, 0.1% BSA), were used in the competition assays at concentrations ranging from 1 μM to 10 μM. For each experiment, each ligand concentration was tested in duplicate or triplicate, and each experiment was repeated at least 3 separate times. […] The ability of each ligand to inhibit specific binding of [125I]-Sar1Ile8Ang II was measured on a gamma counter with all counts corrected for NSB.

[3] = system: male FVB/N mice on high salt diet, heart; assay: High salt (5%) diet intervention model, heart; type: in vivo, mouse; settings: for cardiac fibrosis by hydroxyproline analysis (LV collagen content) / cardiac oxidative stress (DHE staining) / myofibroblast differentiation in heart (α-SMA): 75 pmol/kg/min s.c.; for cardiac fibrosis by hydroxyproline analysis (LV collagen content) / cardiac oxidative stress (DHE staining) / myofibroblast differentiation in heart (α-SMA) / expression of P-IκBα (marker for NFκB activation) in heart: weeks 5-8; for expression of P-IκBα (marker for NFκB activation) in heart: peptides 75 pmol/kg/min s.c., captopril 3 mg/kg/day; for expression of P-IκBα (marker for NFκB activation) in heart / cardiac fibrosis (picrosirius red): Cand 2 mg/kg/day; for cardiac fibrosis (picrosirius red): weeks 5-8 of high salt diet, peptides 75 pmol/kg/min s.c. mini-pump, captopril 3 mg/kg/day in drinking water
Description: (§1) C) In the intervention (or reversal) model, male FVB/N mice were treated with selective AT2Rs agonists after the establishment of cardiovascular disease using a high salt diet, in order to reverse cardiovascular pathologies. In some experiments, the ACE inhibitor captopril (dose) or the ARB candesartan cilexetil (dose) were given for 4 weeks in drinking water. Organs examined included heart, kidney and liver and these were compared to either untreated mice or high salt-fed mice that were treated with saline.
A high-salt diet (5% salt) model is a clinically relevant and disease-reversal model which can replicate the high salt intake by humans which is currently a growing problem in the developed countries. High salt intake induces changes in the cardiovascular system and induces remodelling and fibrosis in the heart, kidney and liver.
(§2) Mice were placed on either a normal rodent diet (0.35% NaCl) which acted as control or a high salt diet (5% sodium in food chow) for 8 weeks. After 4 weeks, mice were also treated subcutaneously (via osmotic mini-pump) with either saline or an AT2R agonist (75 pmol/kg/min subcutaneously) for 4 weeks. Mice continued to be fed a high salt diet whilst receiving these treatments.
All mice which underwent surgery were anaesthetized with Isoflurane (Isorrane) (5% induction and 2.5% maintenance) and an incision made in the midscapular region through which osmotic minipumps (Alzet model 2004, Alza Corp) were inserted for subcutaneous drug administration. The incision area was sutured with 6/0 DY silk (Dynek Pty Ltd) and antibiotic powder applied (Cicatrin, Pfizer) followed by intramuscular injection of the analgesic Cartrophen (0.1 ml of a 1.5 mg/ml stock solution; Biopharm Australia). Systolic blood pressure (SBP) was measured using non-invasive tail-cuff plethysmography apparatus (MC4000 Blood Pressure Analysis System, Hatteras Instrument Inc) before drug treatment (week 0), and then fortnightly. At the end of the 8 week treatment period mice were weighed before being killed by overdose of isoflurane inhalation and cervical dislocation.
(§3) To measure collagen deposition, frozen sections of heart, kidney or aorta (all 5 μm thickness) were air dried for 10 minutes and were brought through 3 times xylene (2 minutes each), and 3 times absolute alcohol washes before being rinsed in tap H2O for 30 seconds. Staining with an optimal concentration of picrosirius red (in this instance 0.05% picrosirius red diluted in saturated picric acid) was performed and left for an hour. Sections were then rinsed in water and differentiated in 0.01M HCl for 2 minutes, followed by dehydration via 3 times absolute alcohol washes. Then, slides were brought through 3 times xylene washes before being cover slipped according to standard histological techniques using DPX as the mounting medium. Images were taken under ×20 magnification, using bright field (Olympus, BX51) and circularized polarized light microscopy (DM IRB, Leica) while percentage of positive interstitial collagen staining per total field of view was quantified using ImageJ 1.46 software (Java, NIH), and averaged out from a total of eight views as the final percentage collagen content in a particular animal.
Immunostaining was performed on 5 μm thick transverse frozen heart sections. These sections were air dried and fixed in ice-cold acetone for approximately 15 minutes before washing with 0.01M PBS buffer (3×10 minutes). Sections were then incubated with 10% goat serum in 0.01M PBS for 30 minutes to reduce non-specific binding. If the primary antibody is raised in goat, this pre-blocked medium is substituted with 5% BSA in PBS and Triton-X. Next, blocking buffers were removed and the primary antibody to respective markers were applied overnight at room temperature based on the following dilution and origin of the antibodies: α-SMA (1:500, Abcam), Vimentin (1:500, Santa Cruz), P-IκBα (1:200, Cell Signalling), F4/80 macrophage (1:100, Serotec). […]

[4] = system: male FVB/N mice on high salt diet, kidney; assay: High salt (5%) diet intervention model, kidney; type: in vivo, mouse; settings: 75 pmol/kg/min s.c., weeks 5-8
Description: as §1, §2, §3
Kidney sections used either picrosirius red staining as described above or using Mason's Trichrome staining as described below.
Formalin fixed, paraffin embedded kidneys were sectioned at thickness of 4 μm and were stained with Masson's trichrome according to standard procedures for analysis of kidney fibrosis. […] Sections were re-fixed in Bouin's solution for 1 hour at 56° C. to improve staining quality then rinsed in running tap water for 5-10 minutes to remove yellow colour. Following this, sections were stained in Weigert's iron hematoxylin working solution for 10 minutes. Rinsed in running warm tap water for 10 minutes. Washed in distilled water. Stained in Biebrich scarlet-acid fuchsin solution for 10-15 minutes. Washed in distilled water. Differentiated in phosphomolybdic-phosphotungstic acid solution for 10-15 minutes or until collagen was no longer red. Sections were transferred directly (without rinse) to aniline blue solution and stained for 5-10 minutes. Rinsed briefly in distilled water and differentiated in 1% acetic acid solution for 2-5 minutes. Washed in distilled water. […] Mounted with DPX mounting medium.
Quantification of kidney fibrosis was performed using images captured with the Aperio scanner (Monash Histology Platform, Monash University), with ×5 magnification. Each kidney section had 5 different fields of view photographed at this magnification. Percentage of tubulointerstitial collagen was analysed and quantified using ImageJ 1.48 software (Java, NIH), and the percentage from 5 random fields of view were averaged for final percentage of collagen for that particular animal. All analysis of collagen expression was conducted in a blinded fashion.

[5] = system: male FVB/N mice on high salt diet, kidney; assay: High salt (5%) diet intervention model, kidney; type: in vivo, mouse; settings: 75 pmol/kg/min s.c., weeks 5-8; remark: listed apart in the source
[6] = system: human cardiac fibroblasts; assay: TGF-β1-induced collagen production in human cardiac fibroblasts (Western blot); type: cell-based; settings: co-treated with TGF-β1 for 3 days, increasing concentrations up to 1 μM
Description: D) Human cardiac fibroblasts (HCFs) were treated with TGFβ1 to induce a pro-fibrotic phenotype state in cell culture, exemplified by increased collagen-1 production, measured by Western blot. HCFs were treated with TGFβ1 alone, or in the presence of an AT2R agonist for 3 days, and the ability of AT2R agonists to inhibit TGFβ1-induced collagen-1 production was measured.
Commercially available human cardiac fibroblasts (HCF, Catalog #6300, Sciencell, Calif., USA) were grown in T75 flask maintained in an incubator at 37° C., 5% CO2. Complete media composition: M199 media (#11150-059, life technologies)+10% FBS (#10437-028, life technologies)+1% Fibroblast Growth Supplement-2 (#2382, ScienCell)+1% penicillin/streptomycin 10,000 U/ml antibiotics (#15140-122, Life Technologies). Fresh complete media was replenished every alternate day until culture reached 70% confluence in which media is replenished daily until it reached approximately 90% confluence in order to passage/subculture. To subculture, media was discarded and culture was rinsed with warm PBS. After which, culture was detached using warm 0.05% Trypsin+EDTA with gentle swirling of flask to make sure cells were not adherent to surface of flask. Trypsin was then neutralized with complete media and suspension was then transferred into a new falcon tube and centrifuged at 1000 rpm for 5 minutes. Supernatant was discarded and pellet of cells were resuspended with 5 ml of complete media, followed by cell counting. For subculturing/passaging, 1 million HCFs are placed into a T75 flask. For Picrosirius Red (PSR) staining or immunofluorescence experiments, 100 k cells were loaded per well in a 24 well plate lined with round coverslips. […]
Once treatment is complete, cells were washed with warm PBS and detached using Accutase (A6964, Sigma), with 5 minutes incubation at 37° C. […] The supernatant (˜20 ul) was transferred to a new tube and protein concentrations were measured using Biorad Lowry protein assay. Protein quantification of respective markers were performed via standard western blot analysis. […]

binding at AT1R (displacement of 125I-Sar1-Ile8-AngII), in words [1] | Fold AT2R selectivity [2] | AT2R/AT1R selectivity ratio ([2]; approximate or conservatively estimated, listed as β-Pro^7-Trp^8-Ang III) | binding at AT2R (displacement of 125I-Sar1-Ile8-AngII), in words [2] | Substance | cardiac fibrosis by hydroxyproline analysis (LV collagen content) [3] | cardiac oxidative stress (DHE staining) [3] | myofibroblast differentiation in heart (α-SMA) [3] | expression of P-IκBα (marker for NFκB activation) in heart [3] | cardiac fibrosis (picrosirius red) [3] | kidney glomerular fibrosis (picrosirius red) [4] | kidney tubulointerstitial fibrosis (picrosirius red) [4] | macrophage infiltration in kidney (F4/80) [5] | renal fibrosis by hydroxyproline analysis [5] | renal inflammation (phospho-IκBα expression) [5] | TGF-β1-induced collagen production [6]
bind poorly | >400,000 fold | > 400,000 fold | high affinity | Arg-Val-Tyr-Ile-His-β-Pro-Trp [βPro-Trβ-8-Ang III] | reversed the pro-fibrotic effects of high salt in the heart | reversed the oxidative stress effects of high salt in the heart | reversed myofibroblast differentiation | reversed | reversed cardiac fibrosis | reversed the glomerular fibrosis caused by high salt in the kidney | reversed the tubulointerstitial fibrosis caused by high salt in the kidney | reversed high salt-induced macrophage infiltration in the kidney | reversed the pro-fibrotic effects of high salt in the kidney | reversed high salt-induced renal inflammation in the kidney | 
 |  |  |  | β-Val^3-Ang II: β-substituted Ang II peptide which only has ~50-fold AT2R:AT1R selectivity (DR[βVal″]YIHPF) |  |  |  |  |  |  |  |  |  |  | failed to inhibit
bind poorly | >18,000 fold |  | high affinity | D-Arg-Val-Tyr-Ile-His-β-Pro-Trp [D-Arg-βPro-Trp-8-Ang III] | reversed the pro-fibrotic effects of high salt in the heart | reversed the oxidative stress effects of high salt in the heart | reversed myofibroblast differentiation | reversed | reversed cardiac fibrosis | reversed the glomerular fibrosis caused by high salt in the kidney | reversed the tubulointerstitial fibrosis caused by high salt in the kidney | reversed high salt-induced macrophage infiltration in the kidney | reversed the pro-fibrotic effects of high salt in the kidney | reversed high salt-induced renal inflammation in the kidney | 
